Assay results from patent publication US9223210B2, “Photosensitive compound, photosensitive resin, and photosensitive composition” (TOYO GOSEI CO., LTD., priority 2012, dated 2015).

Columns and labels:
[1] = Solubility in neutral water (Test Example 1); assay type: physicochemical; settings: 100 g of neutral water, water temperature 20° C.
Description: (§1) Solubility of each of the photosensitive compounds produced in Comparative Synthesis Examples 1 to 2 and Examples 2 to 5 (comparative photosensitive materials H and I, and photosensitive materials C to F) in 100 g of neutral water (water temperature: 20° C.) was assessed. The solubility in an aqueous phosphoric acid solution (liquid temperature: 20° C.) obtained by mixing phosphoric acid (4 g) and water (100 g), was also determined.

[2] = Solubility in aqueous phosphoric acid solution (Test Example 1); assay type: physicochemical; settings: for Solubility in aq. phosphoric acid solution (104 g): liquid temperature 20° C., amount dissolved (complete dissolution where stated); for Solubility in aqueous phosphoric acid solution (in words): summary of Table 1
Description: as §1

[3] = phosphoric acid (4 g) and water (100 g)

Compound | Solubility in water (100 g) [1] | Solubility in aq. phosphoric acid solution (104 g) [2, 3] | Solubility in aq. phosphoric acid solution (104 g), partial dissolution ([2]; phosphoric acid (4 g) and water (100 g), 20° C., amount giving only partial dissolution) | Solubility in aqueous phosphoric acid solution (in words) [2]
3-(4-azidophenyl)-N-(4,4′-dimethoxybutyl)-2-(4-imidazolylmethylphenyl)carbonylamino-prop-2-enamide [Photosensitive material D] | ≦0.1 g | 5 g (complete |  | 
COC(CCCNC(=O)C(=Cc1ccc(N=[N+]=[N-])cc1)NC(=O)c1ccccc1)OC [Comp. Photosensitive material H, 3-(4-azidophenyl)-N-(4,4′-dimethoxybutyl)-2-phenylcarbonylamino-prop-2-enamide] | ≦0.1 g | ≦0.1 g |  | very low solubility

Continued, in another order:

Solubility in water (100 g) [1] | Solubility in aq. phosphoric acid solution (104 g) [2, 3] | Solubility in aq. phosphoric acid solution (104 g), partial dissolution ([2]; phosphoric acid (4 g) and water (100 g), 20° C., amount giving only partial dissolution) | Compound | Solubility in aqueous phosphoric acid solution (in words) [2]
≦0.1 g | 0.2 g (complete | 0.4 g (partial | COC(CCCNC(=O)C(=Cc1cccnc1)NC(=O)C=Cc1ccc(N=[N+]=[N-])cc1)OC [Comp. Photosensitive material I, 2-(3-(4-azidophenyl)prop-2-enoylamino)-N-(4,4-dimethoxybutyl)-3-(3-pyridyl)prop-2-enamide] | lower than that of photosensitive materials C to F
≦0.1 g | 5 g (complete |  | COC(CCCNC(=O)C(=Cc1ccc(N=[N+]=[N-])cc1)NC(=O)c1ccc(CN2CCOCC2)cc1)OC [Photosensitive material C, 3-(4-azidophenyl)-N-(4,4′-dimethoxybutyl)-2-(4-morpholinomethylphenyl)carbonylamino-prop-2-enamide] | 
≦0.1 g | 5 g (complete |  | C=CCN(CC=C)Cc1ccc(C(=O)NC(=Cc2ccc(N=[N+]=[N-])cc2)C(=O)NCCCC(OC)OC)cc1 [Photosensitive material E, 3-(4-azidophenyl)-N-(4,4′-dimethoxybutyl)-2-(4-diallylaminomethylphenyl)carbonylamino-prop-2-enamide] | 
≦0.1 g | 5 g (complete |  | [N-]=[N+]=Nc1ccc(C=C(NC(=O)c2ccc(CN3CCOCC3)cc2)C(=O)NCCCC=O)cc1 [Photosensitive material F, 3-(4-azidophenyl)-N-(3-formylpropyl)-2-(4-morpholinomethylphenyl)carbonylamino-prop-2-enamide] | 
